The term EC50 denotes the concentration at which the effect is half-maximal. High values mean a need for much substance, low ones an effect from little substance.

Series [1] concerns the target T1, TR-α (Homo sapiens, UniProt P10827).
T1 sequence (P10827 1-410 isoform P10827-2): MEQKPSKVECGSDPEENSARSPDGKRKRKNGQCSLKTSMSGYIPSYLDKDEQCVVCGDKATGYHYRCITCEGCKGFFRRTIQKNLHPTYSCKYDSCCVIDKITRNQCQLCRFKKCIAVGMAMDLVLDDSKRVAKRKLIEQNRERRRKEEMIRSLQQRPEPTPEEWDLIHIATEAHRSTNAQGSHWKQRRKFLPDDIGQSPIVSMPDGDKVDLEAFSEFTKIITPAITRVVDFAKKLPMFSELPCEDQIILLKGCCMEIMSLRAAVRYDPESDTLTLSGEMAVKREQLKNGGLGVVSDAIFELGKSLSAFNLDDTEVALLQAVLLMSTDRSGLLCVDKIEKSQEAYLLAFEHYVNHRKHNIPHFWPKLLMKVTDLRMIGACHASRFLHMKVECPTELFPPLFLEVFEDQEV
Briefly: In vitro TR-α activity (in-house protocol). It is filed as cell-based. On the procedure: (§1) Invitro TR-α & TR-β activities were determined as per in-house protocols and the results of representative compounds are provided in tables 1 & 2 below as a proof of the efficacies of the novel class of compounds disclosed above.

Series [2] addresses T2, TR-β (Homo sapiens, UniProt P10828).
T2 sequence (P10828 1-461): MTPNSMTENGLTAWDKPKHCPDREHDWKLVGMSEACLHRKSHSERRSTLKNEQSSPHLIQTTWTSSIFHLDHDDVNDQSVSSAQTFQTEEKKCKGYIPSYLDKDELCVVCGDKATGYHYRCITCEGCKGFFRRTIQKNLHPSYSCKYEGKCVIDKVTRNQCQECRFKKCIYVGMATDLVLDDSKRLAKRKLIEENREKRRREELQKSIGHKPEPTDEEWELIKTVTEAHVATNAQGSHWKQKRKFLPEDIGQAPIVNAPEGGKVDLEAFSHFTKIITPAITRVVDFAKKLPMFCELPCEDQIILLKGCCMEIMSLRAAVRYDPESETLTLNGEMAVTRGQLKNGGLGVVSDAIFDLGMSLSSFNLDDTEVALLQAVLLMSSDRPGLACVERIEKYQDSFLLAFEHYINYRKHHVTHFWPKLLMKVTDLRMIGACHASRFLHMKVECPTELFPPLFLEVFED
Briefly: In vitro TR-β activity (in-house protocol). It is filed as cell-based. The following applies: for fold induction at 0.01 µM: Conc. 10 nM; for fold induction at 0.01 µM / fold induction at 0.1 µM / fold induction at 1 µM / fold induction at 0.001 µM: read-out: TR-β Fold Induction w.r.t T3(100 nm); for fold induction at 0.1 µM: Conc. 100 nM; for fold induction at 1 µM: Conc. 1000 nM; for fold induction at 0.001 µM: Conc. 1 nM. Here is the method:
as §1

Take `CCOC(=O)N(CC(=O)O)c1cc(Cl)c(Oc2ccc(O)c(C(C)C)c2)c(Cl)c1` [Example 1, {[3,5-Dichloro-4-(4-hydroxy-3-isopropyl-phenoxy)-phenyl]-ethoxycarbonyl-amino}-acetic acid]: the figures for the EC50 in series [1] and in series [2] were 440 nM and 146 nM, respectively.
Consider `CCOC(=O)N(CC(=O)O)c1cc(Cl)c(Oc2ccc(O)c(C(C)CC)c2)c(Cl)c1` (stereo not shown) [Example 2, {[4-(3-sec-Butyl-4-hydroxy-phenoxy)-3,5-dichloro-phenyl]-ethoxycarbonyl-amino}-acetic acid], for which the results for the EC50 in series [1] and in series [2] were 119 nM and 162 nM, respectively.
In the same order, the values of `CCOC(=O)N(CC(=O)O)c1cc(Cl)c(Oc2ccc(O)c(Cc3ccccc3)c2)c(Cl)c1` [Example 3, {[4-(3-Benzyl-4-hydroxy-phenoxy)-3,5-dichloro-phenyl]-ethoxycarbonyl-amino}-acetic acid] are 274 nM and 89 nM.
Turning to `CCOC(=O)N(CC(=O)O)c1cc(Cl)c(Oc2ccc(O)c(C(C)(C)C)c2)c(Cl)c1` [Example 13, {[4-(3-tert-Butyl-4-hydroxy-phenoxy)-3,5-dichloro-phenyl]-ethoxycarbonyl-amino}-acetic acid], in series [1] (Conc. 10 nM), the “TR-α Fold Induction w.r.t T3(100 nm)” value amounted to 49.80. The “TR-α Fold Induction w.r.t T3(100 nm)” value in series [1] (Conc. 100 nM) is 96.60. For the same compound, the “TR-α Fold Induction w.r.t T3(100 nm)” value in series [1] (Conc. 1000 nM) was 72.90. In series [2], the fold induction at 0.01 µM was 44.2, the fold induction at 0.1 µM is 80.6 and the fold induction at 1 µM was 75.
In the case of `CCOC(=O)N(CC(=O)O)c1cc(Cl)c(Oc2ccc(O)c(-c3ccccc3)c2)c(Cl)c1` [Example 14, {[3,5-Dichloro-4-(6-hydroxy-biphenyl-3-yloxy)-phenyl]-ethoxycarbonyl-amino}-acetic acid], in series [1] (Conc. 10 nM), the “TR-α Fold Induction w.r.t T3(100 nm)” value was determined as 11.10. Further, the “TR-α Fold Induction w.r.t T3(100 nm)” value in series [1] (Conc. 100 nM) came to 36.30. Besides, the “TR-α Fold Induction w.r.t T3(100 nm)” value in series [1] (Conc. 1000 nM) came to 45.90. For the same compound, in series [2], the fold induction at 0.01 µM was found to be 16.4, the fold induction at 0.1 µM came out at 58.5 and the fold induction at 1 µM turned out to be 77.3.
With `CCOC(=O)N(CC(=O)O)c1cc(Cl)c(Oc2ccc(O)c(C(=O)c3ccc(F)cc3)c2)c(Cl)c1` [Example 15, ({3,5-Dichloro-4-[3-(4-fluoro-benzoyl)-4-hydroxy-phenoxy]-phenyl}-ethoxycarbonyl-amino)-acetic acid], the “TR-α Fold Induction w.r.t T3(100 nm)” value in series [1] (Conc. 10 nM) turned out to be 11.34; in series [1] (Conc. 100 nM), 39.66; in series [1] (Conc. 1000 nM), 33.74. The fold induction at 0.01 µM in series [2] is 23.5. In addition, the fold induction at 0.1 µM in series [2] amounted to 70.5. In addition, the fold induction at 1 µM in series [2] was 66.8.
As to `CCOC(=O)N(CC(=O)O)c1cc(Cl)c(Oc2ccc(O)c(C(=O)c3ccc(Cl)s3)c2)c(Cl)c1` [Example 17, ({3,5-Dichloro-4-[3-(5-chloro-thiophene-2-carbonyl)-4-hydroxy-phenoxy]-phenyl}-ethoxycarbonyl-amino)-acetic acid], the “TR-α Fold Induction w.r.t T3(100 nm)” value in series [1] (Conc. 10 nM) came out at 21.19. In series [1] (Conc. 100 nM), the “TR-α Fold Induction w.r.t T3(100 nm)” value amounted to 51.82. Moreover, the “TR-α Fold Induction w.r.t T3(100 nm)” value in series [1] (Conc. 1000 nM) is 53.12. Moreover, in series [2], the fold induction at 0.01 µM was found to be 27.7, the fold induction at 0.1 µM was 72.8 and the fold induction at 1 µM turned out to be 77.9.
As for `CCOC(=O)N(CC(=O)O)c1cc(C)c(Oc2ccc(O)c(C(C)CC)c2)c(C)c1` (stereo not shown) [Example 18, {[4-(3-sec-Butyl-4-hydroxy-phenoxy)-3,5-dimethyl-phenyl]-ethoxycarbonyl-amino}-acetic acid], in series [1] (Conc. 1 nM), the “TR-α Fold Induction w.r.t T3(100 nm)” value is on record as 6.62. The “TR-α Fold Induction w.r.t T3(100 nm)” value in series [1] (Conc. 10 nM) worked out at 8.90. Also, the “TR-α Fold Induction w.r.t T3(100 nm)” value in series [1] (Conc. 100 nM) is 12.97. The “TR-α Fold Induction w.r.t T3(100 nm)” value in series [1] (Conc. 1000 nM) amounted to 16.87. In series [2], the fold induction at 0.001 µM was 9.44, the fold induction at 0.01 µM stood at 18.6, the fold induction at 0.1 µM stood at 23 and the fold induction at 1 µM was found to be 42.6.
Consider `CCOC(=O)N(CC(=O)O)c1cc(Cl)c(Oc2ccc(O)c(C(=O)c3ccc(Cl)cc3)c2)c(Cl)c1` [Example 20, ({3,5-Dichloro-4-[3-(4-chloro-benzoyl)-4-hydroxy-phenoxy]-phenyl}-ethoxycarbonyl-amino)-acetic acid], for which the “TR-α Fold Induction w.r.t T3(100 nm)” value in series [1] (Conc. 1 nM) was 10.42. Further, the “TR-α Fold Induction w.r.t T3(100 nm)” value in series [1] (Conc. 10 nM) was 15.74. Also, the “TR-α Fold Induction w.r.t T3(100 nm)” value in series [1] (Conc. 100 nM) stood at 21.47. Besides, the “TR-α Fold Induction w.r.t T3(100 nm)” value in series [1] (Conc. 1000 nM) is recorded as 18.49. Also, in series [2], the fold induction at 0.001 µM worked out at 19.9, the fold induction at 0.01 µM was determined as 40.7, the fold induction at 0.1 µM was determined as 87.7 and the fold induction at 1 µM is 81.2.
With `CCC(C)c1cc(Oc2c(C)cc(N(CC(=O)O)CC(=O)O)cc2C)ccc1O` (stereo not shown) [Example 21, {[4-(3-sec-Butyl-4-hydroxy-phenoxy)-3,5-dimethyl-phenyl]-carboxymethyl-amino}-acetic acid], in series [1] (Conc. 1 nM), the “TR-α Fold Induction w.r.t T3(100 nm)” value is recorded as 17.17. For the same compound, the “TR-α Fold Induction w.r.t T3(100 nm)” value in series [1] (Conc. 10 nM) was 56.81. For the same compound, the “TR-α Fold Induction w.r.t T3(100 nm)” value in series [1] (Conc. 100 nM) turned out to be 110.66. In series [1] (Conc. 1000 nM), the “TR-α Fold Induction w.r.t T3(100 nm)” value is given as 93.53. Further, in series [2], the fold induction at 0.001 µM stood at 33.4, the fold induction at 0.01 µM amounted to 153, the fold induction at 0.1 µM was determined as 202 and the fold induction at 1 µM stood at 148.
Consider `CCC(C)c1cc(Oc2c(Cl)cc(N(CC(=O)O)C(=O)Oc3ccc(O)cc3)cc2Cl)ccc1O` (stereo not shown) [Example 23, [[4-(3-sec-Butyl-4-hydroxy-phenoxy)-3,5-dichloro-phenyl]-(4-hydroxy-phenoxycarbonyl)-amino]-acetic acid], for which the EC50 is 9.26 nM in series [1] and 2.6 nM in series [2].
`CCOC(=O)N(CC(=O)O)c1cc(Cl)c(Oc2ccc(O)c(C(=O)c3ccc(C(C)(C)C)cc3)c2)c(Cl)c1` [Example 24, ({4-[3-(4-tert-Butyl-benzoyl)-4-hydroxy-phenoxy]-3,5-dichloro-phenyl}-ethoxycarbonyl-amino)-acetic acid]: the “TR-α Fold Induction w.r.t T3(100 nm)” value was 10.00 in series [1] (Conc. 1 nM), 20.00 in series [1] (Conc. 10 nM), 50.00 in series [1] (Conc. 100 nM) and 70.00 in series [1] (Conc. 1000 nM). Moreover, the fold induction at 0.001 µM in series [2] is 20. In series [2], the fold induction at 0.01 µM turned out to be 40. The fold induction at 0.1 µM in series [2] was 100. In series [2], the fold induction at 1 µM is 75.
Regarding `CCOC(=O)N(CC(=O)O)c1cc(Cl)c(Oc2ccc(O)c(C(=O)c3cccc(Cl)c3)c2)c(Cl)c1` [Example 25, ({3,5-Dichloro-4-[3-(3-chloro-benzoyl)-4-hydroxy-phenoxy]-phenyl}-ethoxycarbonyl-amino)-acetic acid], in series [1] (Conc. 1 nM), the “TR-α Fold Induction w.r.t T3(100 nm)” value is recorded as 4.22. Also, the “TR-α Fold Induction w.r.t T3(100 nm)” value in series [1] (Conc. 10 nM) amounted to 8.55. In addition, in series [1] (Conc. 100 nM), the “TR-α Fold Induction w.r.t T3(100 nm)” value amounted to 12.70. Besides, in series [1] (Conc. 1000 nM), the “TR-α Fold Induction w.r.t T3(100 nm)” value was found to be 7.15. In series [2], the fold induction at 0.001 µM is 10.9, the fold induction at 0.01 µM is 26.3, the fold induction at 0.1 µM was determined as 70.1 and the fold induction at 1 µM is 51.7.
As to `CCC(C)c1cc(Oc2c(Cl)cc(N(CC(=O)O)CC(=O)O)cc2Cl)ccc1O` (stereo not shown) [Example 26, {[4-(3-sec-Butyl-4-hydroxy-phenoxy)-3,5-dichloro-phenyl]-carboxymethyl-amino}-acetic acid], the EC50 in series [1] was 176 nM; in series [2], 28.1 nM.
Turning to `O=C(O)CN(CC(=O)O)c1cc(Cl)c(Oc2ccc(O)c(C(=O)c3ccc(Cl)cc3)c2)c(Cl)c1` [Example 28, (Carboxymethyl-{3,5-dichloro-4-[3-(4-chloro-benzoyl)-4-hydroxy-phenoxy]-phenyl}-amino)-acetic acid], in series [1] (Conc. 1 nM), the “TR-α Fold Induction w.r.t T3(100 nm)” value came out at 8.97. Further, the “TR-α Fold Induction w.r.t T3(100 nm)” value in series [1] (Conc. 10 nM) stood at 14.71. In series [1] (Conc. 100 nM), the “TR-α Fold Induction w.r.t T3(100 nm)” value is recorded as 25.77. Besides, the “TR-α Fold Induction w.r.t T3(100 nm)” value in series [1] (Conc. 1000 nM) came to 33.47. In series [2], the fold induction at 0.001 µM was 10.4, the fold induction at 0.01 µM turned out to be 20.9, the fold induction at 0.1 µM was 45.4 and the fold induction at 1 µM amounted to 46.1.

(Values after patent publication US8420851B2, “Selective TR-β 1 agonist” (Cadila Healthcare Limited, priority 2006, dated 2013).)
